Assay results reported in patent publication US20140357633A1, “COMPOUNDS FOR INHIBITING THE INTERACTION OF BCL2 WITH BINDING PARTNERS” (NOVARTIS AG, priority 2011, published 2014).

Tests used:
[1] = biological target: BCL-2 (binding to BAD peptide) (Homo sapiens, UniProt P10415); assay: SPR (Biacore) solution inhibition assay, BCL-2 binding to immobilized BAD peptide; conditions: biotinylated BAD peptide surface, 56 nM BCL-2, 25° C.; range = high and low IC50 values from multiple experiments; read-out: BCL2_SPR IC50 BAD
Excerpt: (§1) The present method includes utility of a Surface plasmon resonance (SPR)-based biosensor (Biacore™′ GE Healthcare, Uppsala, Sweden) to characterize BCL-2 inhibitors.
(§2) Biacore™ utilizes the phenomenon of surface plasmon resonance (SPR) to detect and measure binding interactions. In a typical Biacore experiment, one of the interacting molecules (ligand) is immobilized on a flexible dextran matrix while the interacting partner (analyte) is allowed to flow across that surface. A binding interaction results in an increase in mass on the sensor surface and a corresponding direct change in the refractive index of the medium in the vicinity of the sensor surface. Changes in refractive index or signal are recorded in resonance units (R.U.) Signal changes due to association and dissociation of complexes are monitored in a non-invasive manner, continuously and in real-time, the results of which are reported in the form of a sensorgram.
(§3) The SPR assay is configured to examine solution inhibition of BCL-2 binding to peptide derivatized sensor surfaces to generate IC50 values as a measure of inhibitor potency.
(§4) Biacore™ A100 (GE Healthcare, Uppsala, Sweden) was used to conduct all experiments reported herein. Sensor surface preparation and all interaction analyses experiments were performed at 25° C. Reagents were purchased from GE Healthcare. Running buffer containing 10 mM Hepes, pH7.4, 150 mM sodium chloride, 1.25 mM Dithiothreitol, 3% Dimethyl sulfoxide and 0.05% polysorbate 20 were utilized throughout all analyses.
(§5) Biotinylated BAK, BAD and NOXA peptides were diluted to 10 nM in running buffer and captured onto a sensor surface pre-derivatized with streptavidin (sensor chip SA) to peptide surface densities in the range 50-100 R.U. Peptide captured surfaces were blocked with 500 μM PEO2-Biotin.
(§6) Interaction analyses were performed by first equilibrating each sample within a 6 point three fold compound dilution series in the range 16 μM to […] with 56 nM BCL-2 for one hour during instrument start-up procedures. Protein compound mixtures were then injected over each peptide surface in parallel for 60 seconds at a flow-rate of 30 μL/min. 56 nM BCL-2 control samples were also prepared and run at regular intervals during the assay. Surface regeneration was performed at the end of each analysis cycle by two 30 second injections of 10 mM Glycine, pH 2.5, 1M Sodium Chloride, 0.05% polysorbate 20. Samples and control compound samples were run in duplicate and controls are also run at regular intervals during the assay to monitor surface and assay performance.
(§7) Data analyses are carried out using Biacore™ A100 evaluation software v1.1 to validate assay quality. Binding level report points were used relative to BCL-2 control samples to calculate % inhibition values for each compound protein mixture. […] The range of data shown in table 1 represents the high and low IC50 values obtained from multiple experiments.

[2] = biological target: BCL-2 (binding to BAK peptide) (Homo sapiens, UniProt P10415); assay: SPR (Biacore) solution inhibition assay, BCL-2 binding to immobilized BAK peptide; conditions: biotinylated BAK peptide surface, 56 nM BCL-2, 25° C.; range = high and low IC50 values from multiple experiments; read-out: BCL2_SPR IC50 BAK
Excerpt: as §1, §2, §3, §4, §5, §6, §7

Chain of BCL-2 (binding to BAK peptide) (P10415 whole entry): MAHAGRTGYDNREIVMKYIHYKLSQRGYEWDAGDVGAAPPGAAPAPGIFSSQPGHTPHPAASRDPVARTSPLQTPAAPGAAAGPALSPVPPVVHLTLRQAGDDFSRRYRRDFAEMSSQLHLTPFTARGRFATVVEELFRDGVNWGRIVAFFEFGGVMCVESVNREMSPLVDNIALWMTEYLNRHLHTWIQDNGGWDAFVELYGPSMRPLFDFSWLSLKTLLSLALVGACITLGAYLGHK
Chain of BCL-2 (binding to BAD peptide) (P10415 whole entry): as above

IC50 [1]	IC50 [2]	Structure (SMILES)
66.6 to 70 nM	53.2 to 59 nM	CCCCN(CCCC)C(=O)c1cc(C)n(-c2ccc(NC(=O)Cc3cccc(F)c3)cc2C(=O)C2Cc3ccccc3C[C@H]2CO)n1 (some centres unmarked) [Example 75]
778 to 972 nM	729 to 935 nM	CCCCN(CCCC)C(=O)c1cc(C)n(-c2ccc(NC(=O)c3cn(C)nc3C(F)(F)F)cc2C(=O)N2Cc3ccccc3C[C@H]2CO)n1 [Example 155]
30.3 to 53.6 nM	27.5 to 44.8 nM	CCCCN(CCCC)C(=O)c1cc(C)n(-c2ccc(NC(=O)C(CC(=O)O)c3ccccc3)cc2C(=O)N2Cc3ccccc3C[C@H]2CO)n1 (stereo partly drawn) [Example 2, 4-((4-(3-(dibutylcarbamoyl)-5-methyl-1H-pyrazol-1-yl)-3-((S)-3-(hydroxymethyl)-1,2,3,4-tetrahydroisoquinoline-2-carbonyl)phenyl)amino)-4-oxo-3-phenylbutanoic acid]
350 to 375 nM	486 to 509 nM	CCCCN(CCCC)C(=O)c1cc(C)n(-c2ccc(NC(=O)c3cc4cc(O)ccc4[nH]3)cc2C(=O)N2Cc3ccccc3C[C@H]2CO)n1 [Example 87]
1740 to 1800 nM	1830 to 2380 nM	CCCCN(CCCC)C(=O)c1cc(C)n(-c2ccc(NC(=O)c3ccc(-c4ccc(OC)cc4)[nH]c3=O)cc2C(=O)N2Cc3ccccc3C[C@H]2CO)n1 [Example 156]
923 to 932 nM	741 to 784 nM	CCCCN(CCCC)C(=O)c1cc(C)n(-c2ccc(NC(=O)c3cc(C(C)C)nn3CC)cc2C(=O)N2Cc3ccccc3C[C@H]2CO)n1 [Example 85]
83 to 92.7 nM	69.4 to 74.9 nM	CCCCN(CCCC)C(=O)c1cc(C)n(-c2ccc(NC(=O)Cc3ccc(Cl)cc3)cc2C(=O)N2Cc3ccccc3C[C@H]2CO)n1 [Example 137]
91.3 to 101 nM	67.3 to 73.9 nM	CCCCN(CCCC)C(=O)c1cc(C)n(-c2ccc(NC(=O)Cc3cccc(OC)c3)cc2C(=O)N2Cc3ccccc3C[C@H]2CO)n1 [Example 69]
363 to 365 nM	241 to 251 nM	CCCCN(CCCC)C(=O)c1cc(C)n(-c2ccc(NC(=O)CC(=O)O)cc2C(=O)N2Cc3ccccc3C[C@H]2CO)n1 [Example 19]
54.1 to 55.9 nM	50.2 to 51.9 nM	CCCCC(CCCC)C(=O)c1cc(C)n(-c2ccc(NC(=O)C(CC(=O)O)C3CCCCC3)cc2C(=O)N2Cc3ccccc3C[C@H]2CO)n1 (some centres unmarked) [Example 103]
	481 to 495 nM	CCCCN(CCCC)C(=O)c1cc(C)n(-c2ccc(NC(=O)C(C)C)cc2C(=O)N2Cc3ccccc3C[C@H]2CO)n1 [Example 163]
201 to 210 nM	146 to 168 nM	CCCCN(CCCC)C(=O)c1cc(C)n(-c2ccc(NC(=O)Cc3ccc(OC)c(F)c3)cc2C(=O)N2Cc3ccccc3C[C@H]2CO)n1 [Example 97]
198 nM	142 to 161 nM	CCCCN(CCCC)C(=O)c1cc(C)n(-c2ccc(NC(=O)COc3ccc(Cl)cc3)cc2C(=O)N2Cc3ccccc3C[C@H]2CO)n1 [Example 7]
693 to 748 nM	497 to 520 nM	CCCCN(CCCC)C(=O)c1cc(C)n(-c2ccc(NC(=O)c3cnn4cccnc34)cc2C(=O)N2Cc3ccccc3C[C@H]2CO)n1 [Example 107]
1020 to 1040 nM	862 to 957 nM	CCCCN(CCCC)C(=O)c1cc(C)n(-c2ccc(NC(=O)c3ccc4c(c3)N=S=N4)cc2C(=O)N2Cc3ccccc3C[C@H]2CO)n1 [Example 84]
302 to 306 nM	244 to 267 nM	CCCCN(CCCC)C(=O)c1cc(C)n(-c2ccc(NC(=O)Cc3ccc(F)cc3)cc2C(=O)N2Cc3ccccc3C[C@H]2CO)n1 [Example 98]
318 to 326 nM	238 to 277 nM	CCCCN(CCCC)C(=O)c1cc(C)n(-c2ccc(NC(=O)c3ncccc3O)cc2C(=O)N2Cc3ccccc3C[C@H]2CO)n1 [Example 62]
77.3 to 79.6 nM	63.1 to 66.9 nM	CCCCN(CCCC)C(=O)c1cc(C)n(-c2ccc(NC(=O)Cc3ccccc3F)cc2C(=O)N2Cc3ccccc3C[C@H]2CO)n1 [Example 57]
89.5 to 92.9 nM	70.7 to 77.1 nM	CCCCN(CCCC)C(=O)c1cc(C)n(-c2ccc(NC(=O)CSc3cc(C)c(Cl)cc3Cl)cc2C(=O)N2Cc3ccccc3C[C@H]2CO)n1 [Example 129]
234 to 245 nM	203 to 205 nM	CCCCN(CCCC)C(=O)c1cc(C)n(-c2ccc(NC(=O)COc3cccnc3)cc2C(=O)N2Cc3ccccc3C[C@H]2CO)n1 [Example 32]

IC50 [1]	IC50 [2]	Structure (SMILES)
619 to 892 nM	567 to 575 nM	CCCCN(CCCC)C(=O)c1cc(C)n(-c2ccc(NC(=O)OC)cc2C(=O)N2Cc3ccccc3C[C@H]2CO)n1 [Example 12]
172 to 173 nM	137 to 140 nM	CCCCN(CCCC)C(=O)c1cc(C)n(-c2ccc(NC(=O)[C@@H]3COc4ccccc4O3)cc2C(=O)N2Cc3ccccc3C[C@H]2CO)n1 [Example 65]
2630 to 2750 nM	1260 to 1350 nM	CCCCN(CCCC)C(=O)c1cc(C)n(-c2ccc(NC(=O)c3csc(-c4cccc(Cl)c4Cl)n3)cc2C(=O)N2Cc3ccccc3C[C@H]2CO)n1 [Example 144]
181 to 187 nM	162 nM	CCCCN(CCCC)C(=O)c1cc(C)n(-c2ccc(NC(=O)C(CC(=O)OCC)c3ccccc3)cc2C(=O)N2Cc3ccccc3C[C@H]2CO)n1 (some centres unmarked) [Example 53]
527 to 597 nM	416 to 491 nM	CCCCN(CCCC)C(=O)c1cc(C)n(-c2ccc(NC(=O)c3cn4cc(Cl)ccc4n3)cc2C(=O)N2Cc3ccccc3C[C@H]2CO)n1 [Example 43]
431 to 444 nM	597 to 598 nM	CCCCN(CCCC)C(=O)c1cc(C)n(-c2ccc(NC(=O)c3cccnc3Nc3cccc(C(F)(F)F)c3)cc2C(=O)N2Cc3ccccc3C[C@H]2CO)n1 [Example 150]
1420 to 1460 nM	1040 to 1490 nM	CCCCN(CCCC)C(=O)c1cc(C)n(-c2ccc(NC(=O)c3sccc3C)cc2C(=O)N2Cc3ccccc3C[C@H]2CO)n1 [Example 81]
95.9 to 129 nM	98 to 134 nM	CCCCN(CCCC)C(=O)c1cc(C)n(-c2ccc(NC(=O)Cc3ccccc3)cc2C(=O)N2Cc3ccccc3C[C@H]2CO)n1 [Example 5]
86.2 to 91.5 nM	71.2 to 76 nM	CCCCN(CCCC)C(=O)c1cc(C)n(-c2ccc(NC(=O)Cc3ccc(OC)c(Cl)c3)cc2C(=O)N2Cc3ccccc3C[C@H]2CO)n1 [Example 96]
	111 to 144 nM	CCCCN(CCCC)C(=O)c1cc(C)n(-c2ccc(NC(=O)C(CC(=O)N(C)C)c3ccccc3)cc2C(=O)N2Cc3ccccc3C[C@H]2CO)n1 (some centres unmarked) [Example 36]
477 to 528 nM	505 to 525 nM	CCCCN(CCCC)C(=O)c1cc(C)n(-c2ccc(NC(=O)c3cc(C)[nH]n3)cc2C(=O)N2Cc3ccccc3C[C@H]2CO)n1 [Example 109]
96.4 to 97.6 nM	75.4 to 83.3 nM	CCCCN(CCCC)C(=O)c1cc(C)n(-c2ccc(NC(=O)C3CC(=O)N(Cc4ccccc4Cl)C3)cc2C(=O)N2Cc3ccccc3C[C@H]2CO)n1 (some centres unmarked) [Example 41]
162 to 183 nM	181 to 191 nM	CCCCN(CCCC)C(=O)c1cc(C)n(-c2ccc(NC(=O)C(C)c3ccccc3)cc2C(=O)N2Cc3ccccc3C[C@H]2CO)n1 (some centres unmarked) [Example 29]
60.7 to 61.4 nM	50.2 to 53.1 nM	CCCCN(CCCC)C(=O)c1cc(C)n(-c2ccc(NC(=O)CCC3COc4ccccc43)cc2C(=O)N2Cc3ccccc3C[C@H]2CO)n1 (some centres unmarked) [Example 130]
48.9 to 52.7 nM	43.1 to 46 nM	CCCCN(CCCC)C(=O)c1cc(C)n(-c2ccc(NC(=O)C3Oc4cc5ccccc5cc4O3)cc2C(=O)N2Cc3ccccc3C[C@H]2CO)n1 [Example 67]
80.3 to 93.4 nM	64.7 to 75.3 nM	CCCCN(CCCC)C(=O)c1cc(C)n(-c2ccc(NC(=O)Cc3ccc(O)cc3)cc2C(=O)N2Cc3ccccc3C[C@H]2CO)n1 [Example 157]
129 to 140 nM	107 to 111 nM	CCCCN(CCCC)C(=O)c1cc(C)n(-c2ccc(NC(=O)C(CC#N)c3ccccc3)cc2C(=O)N2Cc3ccccc3C[C@H]2CO)n1 (some centres unmarked) [Example 135]
142 nM	106 to 116 nM	CCCCN(CCCC)C(=O)c1cc(C)n(-c2ccc(NC(=O)COc3ccccc3C#N)cc2C(=O)N2Cc3ccccc3C[C@H]2CO)n1 [Example 66]
3450 nM	2620 to 3490 nM	CCCCN(CCCC)C(=O)c1cc(C)n(-c2ccc(NC(=O)COc3cccc(OC)c3)cc2C(=O)N2Cc3ccccc3C[C@H]2CO)n1 [Example 22]
1330 to 1470 nM		CCCCN(CCCC)C(=O)c1cc(C)n(-c2ccc(NC(=O)c3ccc(Cl)cc3I)cc2C(=O)N2Cc3ccccc3C[C@H]2CO)n1 [Example 82]
